From patent US10221459B2, “Compositions and methods of treating cancer harboring PIKC3A mutations” (Case Western Reserve University, priority 2014, dated 2019) come the findings set out here.

In one data set the test system is HCT116 xenograft tumors. The data set can be described thus: Xenograft study, HCT116 (parental cells). The note with it: for tumor regression: alone or in combination; for combinational effect with AOA: drug combined with AOA (10 mg/kg), HCT116 xenograft. It counts as in vivo, mice. The source says: (§1) FIGS. 4(A-D) illustrate plots showing aminooxyacetate (AOA) inhibits xenograft tumor growth of PIK3CA mutant CRCs but not PIK3CA WT CRCs. (A-B) AOA inhibits growth of xenograft formed by PIK3CA mutant clones but not PIK3CA WT clones. (A) Clones derived from HCT116 cells; (B) Clones derived from DLD1. (C) AOA inhibits growth of xenograft tumors formed by four CRC cell lines harboring PIK3CA mutations. […] N=5 mice in each experimental group. Data are presented as mean±SEM.
FIGS. 10(A-B) illustrate plots showing AOA synergizes with 5-FU to inhibit growth of HCT116 xenograft tumors.
FIGS. 12(A-B) illustrate images and a plot showing the combination of CB-839 and 5-FU shrinks HCT116 xenograft tumors.
(§2) Animal experiments were approved by the Case Western Reserve University Animal Care and Use Committee. As described in, 3 million cells were injected subcutaneously into the flanks of 4 to 6-week-old female athymic nude mice. Mice were randomly assigned into treatment groups (5 mice/group). When average tumor volume reached 100 mm3, mice were treated with vehicle control, 5 mg/kg or 10 mg/kg of AOA every day per IP (intraperitoneal) injection. Tumor volumes were measured with an electronic caliper and calculated as length×width^2/2.

The next data set concerns RKO xenograft tumors. The experiment in a line: Xenograft study, RKO. The data set is classed as in vivo, mice. The note with it: RKO (PIK3CA mutant); AOA every day IP.
Excerpt: as §1, §2

The subject of another data set is GPT activity. The data set can be described thus: GPT activity in treated xenograft tumors assayed by amounts of α-KG. As to conditions: Mus musculus, AOA 10 mg/kg. It counts as in vivo, mice. The procedure:
(§3) FIGS. 11(A-C) illustrate plots and graph showing (A) enzyme kinetics of GPT2. Recombinant GPT2 was mixed with α-KG and alanine. The product pyruvate was detected by a colorimetric assay. (B) IC50 of AOA to GPT2. (C) Relative amounts of α-KG. Xenograft tumors were treated with 10 mg/kg of AOA or vehicle. α-KG in a untreated tumor was set as 100%.
(§4) However, AOA is pan-transaminase inhibitor.

The test system of data set [1] is HCT116 PIK3CA mutant clone xenograft. The data set can be described thus: Xenograft study, HCT116 PIK3CA mutant clone. The data set is classed as in vivo. As to conditions: HCT116 PIK3CA mutant clone in nude mice; AOA 5 or 10 mg/kg every day IP.
Excerpt: as §1, §2

Another data set relates to LOVO xenograft tumors. The experiment in a line: Xenograft study, LOVO. The data set is classed as in vivo, mice. As to conditions: LOVO (WT PIK3CA); AOA every day IP.
Excerpt: as §1, §2

In the next data set the test system is SW480 xenograft tumors. The experiment in a line: Xenograft study, SW480. It counts as in vivo, mice. As to conditions: SW480 (WT PIK3CA); AOA every day IP.
Excerpt: as §1, §2

Data set [2] has as its system DLD1 PIK3CA mutant and WT clones. The data set can be described thus: Growth inhibition in tissue culture, DLD1 PIK3CA mutant vs WT clones. The data set is classed as cell-based. The note with it: for sensitivity to growth inhibition, PIK3CA-/mut vs PIK3CA WT/- cells: DLD1, various doses. The source says: (§5) FIGS. 9(A-C) illustrate graphs and an immunoblot showing aminooxyacetate (AOA) inhibits PIK3CA mutant tumor growth. (A) IC50 of AOA in HCT116 and DLD1 PIK3CA WT and mutant clones. (B) Body weights of the mice with xenograft established from the indicated CRC cells before and after AOA treatment. N=5 mice in each group. (C) Western blot analyses of GPT2 protein levels in the indicated cell lines.
(§6) To test if PIK3CA mutations render cancer cell sensitive to these inhibitors, we treated PIK3CA-/mut, PIK3CA WT/-HCT116 and DLD1 colon cancer cells with various doses of EGCG and BPTES.

Data set [3] concerns HCT116 PIK3CA WT clone xenograft. The experiment in a line: Xenograft study, HCT116 PIK3CA WT clone. The data set is classed as in vivo. The note with it: isogenic HCT116 PIK3CA WT clone in nude mice; AOA every day IP.
Excerpt: as §1, §2

In the next data set the test system is HT29 xenograft tumors. The data set can be described thus: Xenograft study, HT29. As to conditions: HT29 (PIK3CA mutant); AOA every day IP. It counts as in vivo, mice.
Excerpt: as §1, §2

In data set [4] the test system is HCT116 PIK3CA mutant and WT clones. The data set can be described thus: Growth inhibition in tissue culture, HCT116 PIK3CA mutant vs WT clones. It counts as cell-based. As to conditions: for sensitivity to growth inhibition, PIK3CA-/mut vs PIK3CA WT/- cells: HCT116, various doses.
Excerpt: as §5, §6

The target in another data set is T1, Recombinant GPT2 (Homo sapiens, UniProt Q8TD30).
T1 sequence (Q8TD30 1-523): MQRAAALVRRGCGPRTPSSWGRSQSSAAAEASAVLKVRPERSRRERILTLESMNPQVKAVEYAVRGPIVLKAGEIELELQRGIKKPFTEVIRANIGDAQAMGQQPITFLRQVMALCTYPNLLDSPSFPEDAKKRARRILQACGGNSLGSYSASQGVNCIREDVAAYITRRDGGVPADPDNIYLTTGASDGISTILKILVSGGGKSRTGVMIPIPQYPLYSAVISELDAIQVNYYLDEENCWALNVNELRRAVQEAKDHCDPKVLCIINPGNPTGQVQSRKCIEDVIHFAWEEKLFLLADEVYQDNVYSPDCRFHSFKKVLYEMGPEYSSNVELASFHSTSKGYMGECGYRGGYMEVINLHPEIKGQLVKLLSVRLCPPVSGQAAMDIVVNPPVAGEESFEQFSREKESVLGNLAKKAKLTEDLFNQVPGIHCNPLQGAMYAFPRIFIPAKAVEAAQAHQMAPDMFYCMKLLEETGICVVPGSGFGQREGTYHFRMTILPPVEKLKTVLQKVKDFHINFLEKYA
The data set can be described thus: GPT2 enzymatic assay (colorimetric pyruvate detection). It counts as biochemical. As to conditions: recombinant GPT2 mixed with α-KG and alanine; read-out: IC50 of AOA to GPT2. As to the method: as §3, §4

Another data set has as its system DLD1 xenograft tumors. The data set can be described thus: Xenograft study, DLD1 (parental cells). As to conditions: DLD1 parental cells (PIK3CA mutant); AOA every day IP. It counts as in vivo, mice.
Excerpt: as §1, §2

For data set [5], the system named is DLD1 PIK3CA WT clone xenograft. The experiment in a line: Xenograft study, DLD1 PIK3CA WT clone. As to conditions: isogenic DLD1 PIK3CA WT clone in nude mice; AOA every day IP. It counts as in vivo.
Excerpt: as §1, §2

The test system of data set [6] is DLD1 PIK3CA mutant clone xenograft. The data set can be described thus: Xenograft study, DLD1 PIK3CA mutant clone. It counts as in vivo. The note with it: DLD1 PIK3CA mutant clone in nude mice; AOA 5 or 10 mg/kg every day IP.
Excerpt: as §1, §2

Data set [7] in a line: Body weights of xenograft mice before and after AOA treatment. It counts as in vivo. The note with it: xenograft mice treated with AOA.
Excerpt: as §5, §2

Data set [8] deals with ATF4 protein levels in the HCT116 PIK3CA mutant clone. The experiment in a line: ATF4 protein levels after inhibitor exposure (immunoblot). The data set is classed as cell-based. As to conditions: Western blot (FIG. 6C). The procedure: Ubiquitination of endogenous ATF4 (A). Ubiquitination of ectopically expressed Flag-tagged ATF4 and HA-tagged ubiquitin (B).
Cells were lysed in RIPA buffer [10 mM Tris (pH 7.4), 150 mM NaCl, 5 mM EDTA (pH 8.0), 0.1% SDS, 1% Triton-X100, 1 mM DTT, 1 mM PMSF, complete Protease Inhibitor Cocktail tablet (Roche); supplemented with phosphatase inhibitors (1 mM Na3VO4, 50 mM NaF, 1 mM β-glycerophosphate, 20 mM sodium pyrophosphate)]. Lysates were then cleared by centrifugation at 14,000 rpm for 10 min and protein concentration in supernatants was determined by the BCA protein assay kit (Pierce). Equal amounts of total protein were used for immunoblotting. For immunoprecipitation (IP), cells were lysed as mentioned above. Cleaned cell lysate incubated with antibody for one hour, and then protein A and/or protein G for one hour. Protein A/G beads were washed with lysis buffer three times, and then boiled with SDS-loading buffer followed with immunoblotting.

Setting [9] is: HCT116 (PIK3CA mutant CRC) xenograft.
[10] abbreviates: single agent, HCT116 (PIK3CA mutant CRC) xenograft.

Consider `O=c1[nH]cc(F)c(=O)[nH]1` [5-FU, 5-fluorouracil], for which the tumor regression entry in the data set on HCT116 xenograft tumors (setting [9]) was “neither induced tumor regression”. The xenograft tumor growth result in the data set on HCT116 xenograft tumors (setting [10]) was “inhibited tumor growth to various extents”.
`NOCC(=O)O` [AOA, aminooxyacetate]: the xenograft tumor growth entry with RKO xenograft tumors is reported as “inhibited xenograft tumor growth”; in data set [1], “significantly inhibited the growth”; with LOVO xenograft tumors it was “had no effect on xenograft tumor growth”; in the data set on HCT116 xenograft tumors (HCT116 parental cells (PIK3CA mutant), AOA every day IP), “inhibited xenograft tumor growth”; in the data set with SW480 xenograft tumors it was “had no effect on xenograft tumor growth”; in data set [3], “had no effect”. The xenograft tumor growth result in the data set with HT29 xenograft tumors is listed as “inhibited xenograft tumor growth”; in the data set with DLD1 xenograft tumors, “inhibited xenograft tumor growth”; in [5], “had no effect”; in [6], “significantly inhibited the growth”. Besides, in the data set on GPT activity, the inhibition at 10 mg/kg was ~30%. For the same compound, the “sensitivity to AOA treatment, PIK3CA mutant clones vs WT clones” value in data set [2] (DLD1 clones) and in [4] (HCT116 clones) was “more sensitive to AOA treatment than the WT clones” throughout. The IC50 at Recombinant GPT2 was 980 nM. Further, in data set [7], the “weight loss of treated mice” value was “No weight loss was observed”.
Consider `CC(C)CCN1c2nc(Nc3cc(F)c(O)c(F)c3)ncc2N(C)C(=O)C1C` (stereo not shown) [BI-D1870], for which, in data set [8], the ATF4 protein levels result is on record as “reduced ATF4 protein levels”.
For `O=C(Cc1ccccc1)Nc1nnc(CCSCCc2nnc(NC(=O)Cc3ccccc3)s2)s1` [BPTES], the “sensitivity to growth inhibition, PIK3CA-/mut vs PIK3CA WT/- cells” value in [2] and in [4] was “more sensitive to growth inhibition” in each case.
On to `O=C(Cc1cccc(OC(F)(F)F)c1)Nc1ccc(CCCCc2nnc(NC(=O)Cc3ccccn3)s2)nn1` [CB-839], for which the tumor regression result with HCT116 xenograft tumors (setting [9]) was “neither induced tumor regression”. Moreover, the xenograft tumor growth entry in the data set on HCT116 xenograft tumors (setting [10]) is reported as “inhibited tumor growth to various extents”.
Regarding `Cn1c(=O)n(-c2ccc(C(C)(C)C#N)cc2)c2c3cc(-c4cnc5ccccc5c4)ccc3ncc21` [DEZ235], the ATF4 protein levels result in [8] was “reduced ATF4 protein levels”.
In the case of `O=C(O[C@@H]1Cc2c(O)cc(O)cc2O[C@@H]1c1cc(O)c(O)c(O)c1)c1cc(O)c(O)c(O)c1` [EGCG, Epigallocatechin gallate], the “sensitivity to growth inhibition, PIK3CA-/mut vs PIK3CA WT/- cells” value in [2] and in data set [4] was “more sensitive to growth inhibition” each time.
With `Cc1ccc(-c2c(C(=O)CF)n(CCCO)c3ncnc(N)c23)cc1` [FMK], in data set [8], the ATF4 protein levels entry is reported as “reduced ATF4 protein levels”.
On the same count and under the same terms, the entry for `CCn1c(-c2nonc2N)nc2c(C#CC(C)(C)O)ncc(OC[C@H]3CCCNC3)c21` [GSK690693] is “neither an AKT inhibitor (GSK690693) nor an inhibitor (CHIR-99021) of GSK3β(a known downstream effector of AKT) had any effect on ATF4 protein levels”.
In the case of `CNc1nc(-c2ccc3c(N)n[nH]c3c2)cc(N2C[C@@H](C(=O)NC3CCCCC3)CC[C@H]2C)n1` [GSK2334470], the ATF4 protein levels entry in data set [8] is listed as “reduced ATF4 protein levels”.
Take `CCc1c2c(nc3ccc(OC(=O)N4CCC(N5CCCCC5)CC4)cc13)-c1cc3c(c(=O)n1C2)COC(=O)[C@]3(O)CC` [irinotecan]: the “combinational effect with AOA” value in the data set on HCT116 xenograft tumors was “none of the other drug showed any combinational effect with AOA”.
On the same count and under the same terms, with `O=C1[O][Pt]2([NH][C@@H]3CCCC[C@H]3[NH]2)[O]C1=O` [oxaliplatin] the entry was “none of the other drug showed any combinational effect with AOA”; with `CNC(=O)c1cc(Oc2ccc(NC(=O)Nc3ccc(Cl)c(C(F)(F)F)c3)c(F)c2)ccn1` [regorafenib], “none of the other drug showed any combinational effect with AOA”.
